From US12227495B2, “Herbicidal compounds” (SYNGENTA CROP PROTECTION AG, priority 2018, dated 2025)

Legend:
Format in all cases: in vivo
[1] = test system: Ipomoea hederacea (IPOHE); assay: Pre-emergence herbicide test, glasshouse, percentage damage; settings: rate 250 g/ha, evaluated after 13 days
Description: (§1) Seeds of a variety of test species are sown in standard soil in pots (Lolium perenne (LOLPE), Solanum nigrum (SOLNI), Amaranthus retoflexus (AMARE), Setaria faberi (SETFA), Echinochloa crus-galli (ECHCG), Ipomoea hederacea (IPOHE)). After cultivation for one day (pre-emergence) or after 8 days cultivation (post-emergence) under controlled conditions in a glasshouse (at 24/16° C., day/night; 14 hours light; 65% humidity), the plants are sprayed with an aqueous spray solution derived from the formulation of the technical active ingredient in acetone/water (50:50) solution containing 0.5% Tween 20 (polyoxyethelyene sorbitan monolaurate, CAS RN 9005-64-5). Compounds are applied at 500 g/ha unless otherwise stated. The test plants are then grown in a glasshouse under controlled conditions in a glasshouse (at 24/16° C., day/night; 14 hours light; 65% humidity) and watered twice daily. After 13 days for pre and post-emergence, the test is evaluated for the percentage damage caused to the plant. The biological activities are shown in the following table on a five point scale (5=81-100%; 4=61-80%; 3=41-60%; 2=21-40%; 1=0-20%).

[2] = test system: Amaranthus retoflexus (AMARE); assay: as above; settings: evaluated after 13 days
Description: as §1

[3] = test system: Setaria faberi (SETFA); assay: as above; settings: evaluated after 13 days
Description: as §1

[4] = test system: Lolium perenne (LOLPE); assay: as above; settings: evaluated after 13 days
Description: as §1

[5] = test system: Solanum nigrum (SOLNI); assay: as above; settings: evaluated after 13 days
Description: as §1

[6] = test system: Echinochloa crus-galli (ECHCG); assay: as above; settings: evaluated after 13 days
Description: as §1

[7] = test system: Ipomoea hederacea (IPOHE); assay: Post-emergence herbicide test, glasshouse, percentage damage; settings: evaluated after 13 days
Description: as §1

[8] = test system: Amaranthus retoflexus (AMARE); assay: as above; settings: evaluated after 13 days
Description: as §1

[9] = test system: Setaria faberi (SETFA); assay: as above; settings: evaluated after 13 days
Description: as §1

[10] = test system: Lolium perenne (LOLPE); assay: as above; settings: evaluated after 13 days
Description: as §1

[11] = test system: Solanum nigrum (SOLNI); assay: as above; settings: evaluated after 13 days
Description: as §1

[12] = test system: Echinochloa crus-galli (ECHCG); assay: as above; settings: evaluated after 13 days
Description: as §1

Fc1cnc(Oc2ccccc2-n2cc(C(F)(F)F)cn2)c(F)c1 [Compound A18]
Pre-emergence Test IPOHE percentage damage (five point scale) [1]: 1 (1=0-20%)
Pre-emergence Test AMARE percentage damage (five point scale) ([2]; rate 250 g/ha): 5 (5=81-100%)
Pre-emergence Test SETFA percentage damage (five point scale) ([3]; rate 250 g/ha): 5 (5=81-100%)
Pre-emergence Test LOLPE percentage damage (five point scale) ([4]; rate 250 g/ha): 1 (1=0-20%)
Pre-emergence Test SOLNI percentage damage (five point scale) ([5]; rate 250 g/ha): 5 (5=81-100%)
Pre-emergence Test ECHCG percentage damage (five point scale) ([6]; rate 250 g/ha): 5 (5=81-100%)
percentage damage caused to the plant, IPOHE ([7]; 250 g/ha): 2 (2=21-40%)
percentage damage caused to the plant, AMARE ([8]; 250 g/ha): 3 (3=41-60%)
percentage damage caused to the plant, SETFA ([9]; 250 g/ha): 3 (3=41-60%)
percentage damage caused to the plant, LOLPE ([10]; 250 g/ha): 2 (2=21-40%)
percentage damage caused to the plant, SOLNI ([11]; 250 g/ha): 3 (3=41-60%)
percentage damage caused to the plant, ECHCG ([12]; 250 g/ha): 4 (4=61-80%)

Cc1noc(-c2ccccc2Oc2ncc(Cl)cc2F)n1 [Compound A126]
Pre-emergence Test IPOHE percentage damage (five point scale) [1]: 1 (1=0-20%)
Pre-emergence Test AMARE percentage damage (five point scale) ([2]; rate 250 g/ha): 5 (5=81-100%)
Pre-emergence Test SETFA percentage damage (five point scale) ([3]; rate 250 g/ha): 3 (3=41-60%)
Pre-emergence Test ECHCG percentage damage (five point scale) ([6]; rate 250 g/ha): 4 (4=61-80%)

Fc1cc(Cl)cnc1Oc1ccccc1-c1ccc(Cl)s1 [Compound A66, 5-chloro-2-[2-(5-chloro-2-thienyl)phenoxy]-3-fluoro-pyridine]
percentage damage caused to the plant, IPOHE ([7]; 1000 g/ha): 2 (2=21-40%)
percentage damage caused to the plant, AMARE ([8]; 1000 g/ha): 5 (5=81-100%)
percentage damage caused to the plant, SETFA ([9]; 1000 g/ha): 2 (2=21-40%)
percentage damage caused to the plant, LOLPE ([10]; 1000 g/ha): 1 (1=0-20%)
percentage damage caused to the plant, SOLNI ([11]; 1000 g/ha): 5 (5=81-100%)
percentage damage caused to the plant, ECHCG ([12]; 1000 g/ha): 3 (3=41-60%)

Fc1cc(Cl)cnc1Oc1ccccc1-c1cc(C(F)F)on1 [Compound A163]
Pre-emergence Test IPOHE percentage damage (five point scale) [1]: 1 (1=0-20%)
Pre-emergence Test AMARE percentage damage (five point scale) ([2]; rate 250 g/ha): 5 (5=81-100%)
Pre-emergence Test SETFA percentage damage (five point scale) ([3]; rate 250 g/ha): 5 (5=81-100%)
Pre-emergence Test ECHCG percentage damage (five point scale) ([6]; rate 250 g/ha): 4 (4=61-80%)
percentage damage caused to the plant, IPOHE ([7]; 250 g/ha): 3 (3=41-60%)
percentage damage caused to the plant, AMARE ([8]; 250 g/ha): 5 (5=81-100%)
percentage damage caused to the plant, SETFA ([9]; 250 g/ha): 5 (5=81-100%)
percentage damage caused to the plant, ECHCG ([12]; 250 g/ha): 5 (5=81-100%)

Cc1ccc(C#N)nc1Oc1cccc(F)c1-c1cc(C(F)F)no1 [Compound A76]
percentage damage caused to the plant, IPOHE ([7]; 250 g/ha): 3 (3=41-60%)
percentage damage caused to the plant, AMARE ([8]; 250 g/ha): 2 (2=21-40%)
percentage damage caused to the plant, SETFA ([9]; 250 g/ha): 1 (1=0-20%)
percentage damage caused to the plant, LOLPE ([10]; 250 g/ha): 1 (1=0-20%)
percentage damage caused to the plant, SOLNI ([11]; 250 g/ha): 4 (4=61-80%)
percentage damage caused to the plant, ECHCG ([12]; 250 g/ha): 1 (1=0-20%)

FC(F)c1cc(-c2c(Br)cccc2Oc2ccc(Cl)cn2)on1 [Compound A100]
Pre-emergence Test IPOHE percentage damage (five point scale) [1]: 1 (1=0-20%)
Pre-emergence Test AMARE percentage damage (five point scale) ([2]; rate 250 g/ha): 5 (5=81-100%)
Pre-emergence Test SETFA percentage damage (five point scale) ([3]; rate 250 g/ha): 5 (5=81-100%)
Pre-emergence Test ECHCG percentage damage (five point scale) ([6]; rate 250 g/ha): 2 (2=21-40%)
percentage damage caused to the plant, IPOHE ([7]; 250 g/ha): 2 (2=21-40%)
percentage damage caused to the plant, AMARE ([8]; 250 g/ha): 5 (5=81-100%)
percentage damage caused to the plant, SETFA ([9]; 250 g/ha): 5 (5=81-100%)
percentage damage caused to the plant, ECHCG ([12]; 250 g/ha): 5 (5=81-100%)

Fc1cc(Cl)cnc1Oc1cccc(I)c1-n1cc(C(F)(F)F)cn1 [Compound A57, 5-chloro-3-fluoro-2-[3-iodo-2-[4-(trifluoromethyl)pyrazol-1-yl]phenoxy]pyridine]
Pre-emergence Test AMARE percentage damage (five point scale) ([2]; rate 1000 g/ha): 5 (5=81-100%)
Pre-emergence Test SETFA percentage damage (five point scale) ([3]; rate 1000 g/ha): 5 (5=81-100%)
Pre-emergence Test LOLPE percentage damage (five point scale) ([4]; rate 1000 g/ha): 1 (1=0-20%)
Pre-emergence Test SOLNI percentage damage (five point scale) ([5]; rate 1000 g/ha): 4 (4=61-80%)
Pre-emergence Test ECHCG percentage damage (five point scale) ([6]; rate 1000 g/ha): 1 (1=0-20%)
percentage damage caused to the plant, IPOHE ([7]; 1000 g/ha): 2 (2=21-40%)
percentage damage caused to the plant, AMARE ([8]; 1000 g/ha): 5 (5=81-100%)
percentage damage caused to the plant, SETFA ([9]; 1000 g/ha): 4 (4=61-80%)
percentage damage caused to the plant, LOLPE ([10]; 1000 g/ha): 1 (1=0-20%)
percentage damage caused to the plant, SOLNI ([11]; 1000 g/ha): 5 (5=81-100%)
percentage damage caused to the plant, ECHCG ([12]; 1000 g/ha): 1 (1=0-20%)
